Reference: patent US10449223B2, “Use of dehydroeburicoic acid from Antrodia camphorata in the treatment or prevention of diabetes and hyperlipidemia” (priority 2016, dated 2019)

Tests used:
[1] = test system: STZ-induced diabetic mice; test: Tissue weight, body weight and food intake in STZ-induced diabetic mice; format: in vivo, C57BL/6J mice; settings: 28 days
[2] = test system: STZ-induced diabetic mice; test: Histology of epididymal WAT and liver tissue in STZ-induced diabetic mice; format: in vivo, C57BL/6J mice; settings: 28 days
Excerpt: Parts of EWAT and liver tissue specimens were investigated as previously described.^31,32 Microscopic images were taken using a microscope (Olympus BX51, BX51, Olympus, Tokyo, Japan).

SREBP1c = test: Semiquantitative RT-PCR, liver tissue: SREBP1c mRNA; format: in vivo, C57BL/6J mice; settings: STZ-induced diabetic mice; Metf 300 mg/kg/day oral, 28 days; relative to CON group (so in the source)
Procedure: (§1) Total RNA from liver tissue was isolated with a Trizol Reagent (Molecular Research Center, Inc., Cincinnati, Ohio) according to the manufacturer's directions. The integrity of the extracted total RNA was examined by 2% agarose gel electrophoresis, and the RNA concentration was determined by the ultraviolet (UV) light absorbency at 260 nm and 280 nm (Spectrophotometer U-2800A, Hitachi). Total RNA (1 μg) was reverse transcribed to cDNA in a reaction mixture containing buffer, and 5 μL Moloney murine leukemia virus reverse transcriptase (Epicentre, Madison, Wis., USA). The polymerase chain reaction (PCR) was performed in a final 25 μL containing 1 U Blend Taq-Plus (TOYOBO, Japan), 1 μL of the RT first-strand cDNA product, 10 μM of each forward (F) and reverse (R) primer, 75 mM Tris-HCl (pH 8.3) containing 1 mg/L Tween 20, 2.5 mM dNTP, and 2 mM MgCl2. The products were run on 2% agarose gels and stained with ethidium bromide.

G6 Pase = test: Semiquantitative RT-PCR, liver tissue: G6 Pase mRNA; format: in vivo, C57BL/6J mice; settings: STZ-induced diabetic mice; Metf 300 mg/kg/day oral, 28 days; relative to CON group (so in the source)
Procedure: as §1

PEPCK = test: Semiquantitative RT-PCR, liver tissue: PEPCK mRNA; format: in vivo, C57BL/6J mice; settings: STZ-induced diabetic mice; Metf 300 mg/kg/day oral, 28 days; relative to CON group (so in the source)
Procedure: as §1

PPARγ = test: Western blotting: PPARγ in liver and adipose tissue of mice; settings: STZ-induced diabetic mice; Metf 300 mg/kg/day oral, 28 days
Procedure: (§2) The study protocol was performed as previously described.^28 Diabetes was induced by intraperitoneal injection of streptozotocin (Sigma Chemical, St. Louis, Mo., USA) for 5 consecutive days. The dosage of STZ was 55 mg/kg (dissolved in 0.05 M cold sodium citrate buffer, pH 4.5). The normal control mice received only citrate buffer of the same volume.
(§3) During the experiment, all mice were fasted overnight, and blood was collected from the retro-orbital sinus. After dosing for 4 weeks, food was removed from the mice at night, and on the next day, the mice after 12 h of fasting were sacrificed. All of the individual tissues were collected and weighed, and parts of tissues were instantly frozen at −80° C. for later target gene analysis.
(§4) PPARα, PPARγ, and FAS proteins were performed by the liver and white adipose tissue of mice. Skeletal muscle from mice was subjected to GLUT4 expression level analysis, and the total membrane fractions were collected with buffer and determined using a described procedure. The protein contents of GLUT4, phospho-AMPK, and total AMPK were detected by Western blotting and determined as described.

GLUT4 = test: Western blotting: membrane GLUT4 in skeletal muscle of mice; settings: STZ-induced diabetic mice; Metf 300 mg/kg/day oral, 28 days
Procedure: as §2, §3, §4

FAS = test: Western blotting: FAS in liver and adipose tissue of mice; settings: STZ-induced diabetic mice; Metf 300 mg/kg/day oral, 28 days
Procedure: as §2, §3, §4

AMPK = test: Western blotting: phospho-AMPK (Thr172)/total AMPK in skeletal muscle and liver of mice; settings: STZ-induced diabetic mice; Metf 300 mg/kg/day oral, 28 days
Procedure: as §2, §3, §4

DGAT2 = test: Semiquantitative RT-PCR, liver tissue: DGAT2 mRNA; format: in vivo, C57BL/6J mice; settings: STZ-induced diabetic mice; Metf 300 mg/kg/day oral, 28 days; relative to CON group (so in the source)
Procedure: as §1

PPARα [3] = test: Semiquantitative RT-PCR, liver tissue: PPARα mRNA; format: in vivo, C57BL/6J mice; settings: STZ-induced diabetic mice; Metf 300 mg/kg/day oral, 28 days
Procedure: as §1

PPARα [4] = test: Western blotting: PPARα in liver of mice; settings: STZ-induced diabetic mice; Metf 300 mg/kg/day oral, 28 days
Procedure: as §2, §3, §4

CC(C)OC(=O)C(C)(C)Oc1ccc(C(=O)c2ccc(Cl)cc2)cc1 [Feno, fenofibrate, reference compound]
Tissue weight: BAT ([1]; Feno 250 mg/kg/day oral): 0.319 ± 0.030 wt %
Tissue weight: EWAT ([1]; Feno 250 mg/kg/day oral): 0.743 ± 0.059 wt %
Tissue weight: MWAT ([1]; Feno 250 mg/kg/day oral): 0.795 ± 0.070 wt %
Tissue weight: RWAT ([1]; Feno 250 mg/kg/day oral): 0.154 ± 0.016 wt %
Tissue weight: Visceral fat ([1]; Feno 250 mg/kg/day oral): 0.889 ± 0.075 wt %
average area of adipocytes in epididymal WAT ([2]; Feno 250 mg/kg/day oral): 5373.8±194.6 μm^2

CN(C)C(=N)N=C(N)N [Metf, metformin, reference compound]
mRNA levels of SREBP1c in liver (SREBP1c): decreased
Tissue weight: EWAT ([1]; Metf 300 mg/kg/day oral): 0.956 ± 0.047 wt %
Tissue weight: RWAT ([1]; Metf 300 mg/kg/day oral): 0.176 ± 0.023 wt %
Tissue weight: Visceral fat ([1]; Metf 300 mg/kg/day oral): 1.132 ± 0.054 wt %
mRNA levels of G6 Pase in liver (G6 Pase): decreased
mRNA levels of PEPCK in liver (PEPCK): decreased
expression levels of PPARγ in adipose tissue (PPARγ): decreased
expression levels of PPARγ in the liver (PPARγ): decreased
membrane expression levels of GLUT4 in skeletal muscle vs STZ group (GLUT4): greater
expression levels of FAS in adipose tissue (FAS): decreased
expression levels of FAS in the liver (FAS): decreased
muscular expression levels of phospho-AMPK/total AMPK compared with the STZ group (second sentence) (AMPK): increased
mRNA levels of DGAT2 in liver (DGAT2): decreased
mRNA level of PPARα in liver (PPARα [3]): increased
expression levels of PPARα in the liver (PPARα [4]): increased
average area of adipocytes in epididymal WAT ([2]; Metf 300 mg/kg/day oral): 5308.9±204.7 μm^2
ballooning of hepatocyte (liver histology) ([2]; Metf 300 mg/kg/day oral): no ballooning phenomenon
